Among the data in patent publication US12590099B2, “Inhibitors of histone deacetylase useful for the treatment or prevention of HIV infection” (Merck Sharp & Dohme LLC, priority 2018, dated 2026) are IC50 values, retold here.

Holding throughout (format): biochemical
Experiment [1] concerns the target T1, Recombinant human HDAC3/SMRT heterodimer (Homo sapiens, UniProt O15379).
T1 construct: FLAG (C); made in house
The experiment is described as follows: Human HDAC enzyme inhibitor Fluor-de-Lys assay, HDAC3/SMRT.

In a further experiment the target is T2, Recombinant human HDAC8 (Homo sapiens, UniProt Q9BY41).
T2 construct: purchased Enzo Life Sciences BML-SE145-0100
T2 sequence (Q9BY41 1-377): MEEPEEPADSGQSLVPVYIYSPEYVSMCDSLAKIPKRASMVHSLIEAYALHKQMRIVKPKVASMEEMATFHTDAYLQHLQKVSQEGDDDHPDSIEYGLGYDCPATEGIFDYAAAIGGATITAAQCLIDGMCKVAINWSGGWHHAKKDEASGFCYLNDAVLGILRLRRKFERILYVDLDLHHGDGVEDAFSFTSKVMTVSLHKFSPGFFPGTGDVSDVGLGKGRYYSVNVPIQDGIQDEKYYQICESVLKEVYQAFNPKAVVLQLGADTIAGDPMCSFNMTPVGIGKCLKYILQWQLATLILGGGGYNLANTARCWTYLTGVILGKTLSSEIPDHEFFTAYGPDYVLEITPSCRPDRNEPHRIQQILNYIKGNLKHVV
Description: Human HDAC enzyme inhibitor Fluor-de-Lys assay, HDAC8.

The next experiment concerns the target T3, Recombinant human HDAC2 (Homo sapiens, UniProt Q92769).
T3 construct: Full length human HDAC2-FLAG was expressed in baculovirus infected Sf9 cells; FLAG (C); made in house; host or cells: Sf9 (baculovirus)
The experiment is described as follows: Human HDAC enzyme inhibitor Fluor-de-Lys assay, HDAC2. The method, then:
(§1) Human HDAC Enzyme Inhibitor Fluor-De-Lys Assay
(§2) Recombinant human HDAC8 (BML-SE145-0100) and HDAC10 (BML-SE559-0050) enzymes, HDAC substrates BML-KI104 and BML-KI178, and HDAC developer solutions BML-KI105 and BML-KI176 were purchased from Enzo Life Sciences. […] HDAC inhibitor suberoylanilide hydroxamic acid (SAHA) was obtained from Indofine and trichostatin A (TSA) was obtained from Sigma-Aldrich.
(§3) Recombinant human HDAC1, HDAC2, and HDAC3/SMRT heterodimer were prepared by Merck Research Laboratories. […] The eluted protein was then passed over an anti-HDAC1 immunoaffinity column to remove any complexes containing HDAC1. […]
(§4) The histone deacetylase activities of HDAC1, HDAC2, HDAC3, HDAC6, and HDAC8 were measured in modified FLUOR DE LYS assays in 384-well format. In this assay, HDAC enzymes are initially incubated with an ε-acetyl (or -trifluoroacetyl)-L-lysine-containing substrate with a C-terminal amide having aminomethylcoumarin as the amine component. HDACs cleave the ε-acetyl group, rendering the resulting product susceptible to AMC cleavage by trypsin. The released AMC is then detected by its fluorescence.
(§5) The HDAC3/SMRT assay employed buffer B, consisting of 20 mM HEPES, pH 8.0, 1 mM MgCl2, 50 mM NaCl, 2.7 mM KCl, 0.05% BSA, 0.005% Tween 20, and 10 μM IP4. […] The HDAC8 assay employed buffer D, consisting of 20 mM HEPES, pH 8.0, 1 mM MgCl2, 100 mM NaCl, 20 mM KCl, 0.10% n-octyl-β-D-glucoside (Anatrace) and 0.05% BSA. All steps were performed at room temperature (23° C.). The assay was performed by pre-incubating serial dilutions of test compounds with the target HDAC prior to initiation with substrate. Each compound was titrated in a 10-point dose response, using a 1:3 fold dilution scheme, with 0.15 ul of solution added by ECH0555 to the plate, followed by the addition of 20 μl of the appropriate HDAC isoform diluted in appropriate assay buffer. […] Final conditions used for each assay were: 1. HDAC 1, 0.3 nM total enzyme, 20 μM substrate BML-KI104; 2. […] HDAC 3/SMRT, 0.3 nM total enzyme, 20 μM substrate BML-KI104; 4. […] The reactions were stopped and developed by addition of 30 ul of HDAC developer solution containing a saturating level of HDAC inhibitor as follows: 1.

The next experiment addresses T4, Recombinant human HDAC1 (Homo sapiens, UniProt Q13547).
T4 construct: FLAG (C); made in house
Description: Human HDAC enzyme inhibitor Fluor-de-Lys assay, HDAC1. The method, then:
as §1, §2, §3, §4, §5

The next experiment concerns the target T5, HDAC6 (Homo sapiens, UniProt Q9UBN7).
T5 sequence (Q9UBN7 1-1215): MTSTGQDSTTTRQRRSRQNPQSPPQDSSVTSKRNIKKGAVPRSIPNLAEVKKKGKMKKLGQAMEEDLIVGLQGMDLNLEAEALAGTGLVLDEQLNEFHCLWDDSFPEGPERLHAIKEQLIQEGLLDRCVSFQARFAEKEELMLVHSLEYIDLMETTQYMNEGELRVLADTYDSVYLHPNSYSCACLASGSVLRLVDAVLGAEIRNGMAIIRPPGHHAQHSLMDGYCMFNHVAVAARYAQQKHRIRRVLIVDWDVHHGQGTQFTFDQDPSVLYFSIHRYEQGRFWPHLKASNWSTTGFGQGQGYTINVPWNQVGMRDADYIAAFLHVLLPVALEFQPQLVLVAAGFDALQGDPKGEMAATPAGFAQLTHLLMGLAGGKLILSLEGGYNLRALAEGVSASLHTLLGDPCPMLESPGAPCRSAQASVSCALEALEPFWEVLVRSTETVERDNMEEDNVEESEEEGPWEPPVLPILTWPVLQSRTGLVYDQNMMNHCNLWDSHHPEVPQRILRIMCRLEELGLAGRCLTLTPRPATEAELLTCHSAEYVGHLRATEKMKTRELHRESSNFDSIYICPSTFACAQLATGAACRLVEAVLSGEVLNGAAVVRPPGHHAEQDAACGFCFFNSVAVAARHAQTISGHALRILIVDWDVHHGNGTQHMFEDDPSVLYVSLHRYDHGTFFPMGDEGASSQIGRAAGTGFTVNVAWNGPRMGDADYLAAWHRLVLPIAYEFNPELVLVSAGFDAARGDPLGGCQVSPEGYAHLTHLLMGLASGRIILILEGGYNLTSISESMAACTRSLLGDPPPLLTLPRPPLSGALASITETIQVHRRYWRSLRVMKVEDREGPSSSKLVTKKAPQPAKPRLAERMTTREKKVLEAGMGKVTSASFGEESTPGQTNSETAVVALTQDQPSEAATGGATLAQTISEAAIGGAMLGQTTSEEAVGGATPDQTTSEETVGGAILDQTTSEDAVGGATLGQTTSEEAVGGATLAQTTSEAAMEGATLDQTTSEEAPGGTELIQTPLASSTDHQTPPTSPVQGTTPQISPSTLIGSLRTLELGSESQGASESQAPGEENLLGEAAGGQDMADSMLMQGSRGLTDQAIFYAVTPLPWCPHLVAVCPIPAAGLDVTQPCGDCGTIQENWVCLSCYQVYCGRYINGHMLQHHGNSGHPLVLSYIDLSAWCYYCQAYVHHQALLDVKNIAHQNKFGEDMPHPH
Description: Human HDAC enzyme inhibitor Fluor-de-Lys assay, HDAC6.

Usually IC50 stands for the midpoint of a concentration-inhibition curve.

T1 sequence (O15379 whole entry): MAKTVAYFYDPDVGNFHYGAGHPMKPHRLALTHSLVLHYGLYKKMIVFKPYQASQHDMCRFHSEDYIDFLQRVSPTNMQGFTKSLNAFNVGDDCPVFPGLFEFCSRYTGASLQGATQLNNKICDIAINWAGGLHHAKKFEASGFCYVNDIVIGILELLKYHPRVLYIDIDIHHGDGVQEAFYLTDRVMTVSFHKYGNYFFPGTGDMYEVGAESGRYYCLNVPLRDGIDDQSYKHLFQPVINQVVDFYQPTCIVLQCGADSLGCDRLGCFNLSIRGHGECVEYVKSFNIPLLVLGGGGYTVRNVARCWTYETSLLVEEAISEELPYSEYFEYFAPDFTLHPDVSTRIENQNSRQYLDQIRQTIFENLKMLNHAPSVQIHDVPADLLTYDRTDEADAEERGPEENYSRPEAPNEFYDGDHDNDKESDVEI
T1 sequence (Q9Y618 1-899 partner limits assumed): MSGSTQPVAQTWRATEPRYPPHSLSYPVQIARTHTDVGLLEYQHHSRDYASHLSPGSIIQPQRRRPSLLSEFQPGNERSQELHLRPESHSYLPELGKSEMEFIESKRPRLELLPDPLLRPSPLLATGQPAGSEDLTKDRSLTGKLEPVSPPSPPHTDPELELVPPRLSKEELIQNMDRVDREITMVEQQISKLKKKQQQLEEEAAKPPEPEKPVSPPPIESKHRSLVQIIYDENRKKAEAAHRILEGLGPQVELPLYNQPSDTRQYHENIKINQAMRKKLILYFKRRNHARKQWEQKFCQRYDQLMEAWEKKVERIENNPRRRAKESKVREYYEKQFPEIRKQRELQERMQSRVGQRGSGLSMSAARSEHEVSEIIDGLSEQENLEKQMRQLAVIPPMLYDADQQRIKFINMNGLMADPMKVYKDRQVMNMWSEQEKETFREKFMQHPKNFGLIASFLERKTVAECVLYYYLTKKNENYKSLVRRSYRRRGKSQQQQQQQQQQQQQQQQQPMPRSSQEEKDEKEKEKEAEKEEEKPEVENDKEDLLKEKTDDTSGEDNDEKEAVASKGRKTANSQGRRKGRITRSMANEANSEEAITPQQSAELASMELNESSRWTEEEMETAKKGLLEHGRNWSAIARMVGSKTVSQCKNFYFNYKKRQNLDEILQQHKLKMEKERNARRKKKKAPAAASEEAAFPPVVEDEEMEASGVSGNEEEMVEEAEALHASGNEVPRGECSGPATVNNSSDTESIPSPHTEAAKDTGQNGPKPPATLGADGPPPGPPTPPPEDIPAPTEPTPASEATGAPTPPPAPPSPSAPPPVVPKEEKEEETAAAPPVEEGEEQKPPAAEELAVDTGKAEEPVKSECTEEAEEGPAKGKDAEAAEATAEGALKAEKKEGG
T4 sequence (Q13547 whole entry): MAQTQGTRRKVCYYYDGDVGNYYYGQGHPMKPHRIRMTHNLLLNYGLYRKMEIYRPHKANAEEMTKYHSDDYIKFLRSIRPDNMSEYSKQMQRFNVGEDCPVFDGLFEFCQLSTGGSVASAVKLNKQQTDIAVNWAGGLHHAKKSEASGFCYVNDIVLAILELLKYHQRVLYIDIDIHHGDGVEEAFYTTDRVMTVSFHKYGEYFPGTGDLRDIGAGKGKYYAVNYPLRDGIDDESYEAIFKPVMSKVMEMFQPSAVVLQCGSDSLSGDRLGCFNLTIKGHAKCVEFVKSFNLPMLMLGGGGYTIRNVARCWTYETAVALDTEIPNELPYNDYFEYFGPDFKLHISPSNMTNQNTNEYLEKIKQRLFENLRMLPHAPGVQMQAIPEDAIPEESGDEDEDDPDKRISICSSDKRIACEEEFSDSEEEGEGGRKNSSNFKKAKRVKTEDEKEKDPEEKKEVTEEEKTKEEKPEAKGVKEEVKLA
T3 sequence (Q92769 whole entry): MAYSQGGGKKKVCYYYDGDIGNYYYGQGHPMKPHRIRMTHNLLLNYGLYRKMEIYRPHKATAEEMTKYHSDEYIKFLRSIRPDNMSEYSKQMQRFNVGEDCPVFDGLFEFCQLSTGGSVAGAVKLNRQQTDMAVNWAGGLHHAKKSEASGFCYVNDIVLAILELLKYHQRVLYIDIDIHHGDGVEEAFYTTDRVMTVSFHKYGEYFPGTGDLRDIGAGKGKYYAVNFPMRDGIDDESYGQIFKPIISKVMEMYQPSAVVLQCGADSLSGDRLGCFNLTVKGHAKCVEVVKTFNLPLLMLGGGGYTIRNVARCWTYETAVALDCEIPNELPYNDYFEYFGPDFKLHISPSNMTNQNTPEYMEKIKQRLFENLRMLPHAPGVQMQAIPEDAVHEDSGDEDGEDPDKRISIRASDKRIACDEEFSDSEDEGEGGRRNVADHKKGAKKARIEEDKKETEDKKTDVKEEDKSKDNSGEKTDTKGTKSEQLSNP

In the case of `CN1CCC2(CC1)C[C@@H]2C(=O)N[C@@H](CCCCCC(=O)CC(F)(F)F)c1ncc(-c2ccc(F)cc2)[nH]1` [Compound 68], the IC50 in experiment [1] came to 8.59 nM; on Recombinant human HDAC8 it was 4410 nM; on Recombinant human HDAC2, 126 nM; at Recombinant human HDAC1, 8.74 nM; at HDAC6, 6810 nM.
The corresponding values for `CCC(=O)CCCCC[C@H](NC(=O)C1CN(C)C1)c1ncc(-c2ccc3c(c2)C2CCC3C2)[nH]1` (stereo partly drawn) [Compound 73, 1-methyl-N-{(1S)-7-oxo-1-[5-(1,2,3,4-tetrahydro-1,4-methanonaphthalen-6-yl)-1H-imidazol-2-yl]nonyl}azetidine-3-carboxamide] are 9.57 nM, 3070 nM, 138 nM, 31 nM and 6510 nM.
Take `CCC(=O)CCCCC[C@H](NC(=O)[C@H]1CC12CCN(C)CC2)c1ncc(-c2ccc3c(c2)C2CCC3C2)[nH]1` (stereo partly drawn) [Compound 74]: the IC50 amounted to 3.74 nM in experiment [1]; 4530 nM on Recombinant human HDAC8; 36.2 nM on Recombinant human HDAC2; 8.21 nM on Recombinant human HDAC1; 7850 nM on HDAC6.
The corresponding values for `CCC(=O)CCCCC[C@H](NC(=O)[C@H]1CC12CCN(C)CC2)c1nc(F)c(-c2cc3ccccc3nc2OC)[nH]1` [Compound 75] are 2.59 nM, 27300 nM, 101 nM, 29.3 nM and over 45000 nM.
The like results for `CCC(=O)CCCCC[C@H](NC(=O)[C@H]1CC12CCN(C)CC2)c1[nH]c(-c2ccc(F)cc2)nc1C#N` [Compound 76] were, in that order, 2.88 nM, 16800 nM, 19.7 nM, 3.85 nM and 26600 nM.
As for `CCC(=O)CCCCC[C@H](NC(=O)[C@H]1CC12CCN(CC)CC2)c1ncc(-c2ccc3nc(C4CC4)ccc3c2)[nH]1` [Compound 101], the concentration for half-maximal inhibition (IC50) in experiment [1] was under 1.5 nM; at Recombinant human HDAC8 it was 6650 nM; on Recombinant human HDAC2, under 1.5 nM; on Recombinant human HDAC1, under 1.5 nM; against HDAC6 it was 7370 nM.
As to `CCC(=O)CCCCC[C@H](NC(=O)[C@H]1CC12CCN(CC1CC1)CC2)c1ncc(-c2ccc3nc(C4CC4)ccc3c2)[nH]1` [Compound 104], the IC50 was under 1.5 nM in experiment [1]; 5020 nM on Recombinant human HDAC8; under 1.5 nM at Recombinant human HDAC2; under 1.5 nM on Recombinant human HDAC1; 5300 nM on HDAC6.
For the compound `CCC(=O)CCCCC[C@H](NC(=O)C1=NOC2(CCN(C(C)C)CC2)C1)c1ncc(-c2cc3ccccc3nc2OC)[nH]1` [Compound 106, N-{(1S)-1-[5-(2-methoxyquinolin-3-yl)-1H-imidazol-2-yl]-7-oxononyl}-8-(1-methylethyl)-1-oxa-2,8-diazaspiro[4.5]dec-2-ene-3-carboxamide], the IC50 is under 1.5 nM in experiment [1]; 2780 nM on Recombinant human HDAC8; 7.9 nM at Recombinant human HDAC2; 1.73 nM at Recombinant human HDAC1; 1460 nM against HDAC6.
Regarding `CCC(=O)CCCCC[C@H](NC(=O)[C@H]1CC12CCN(C)CC2)c1ncc(-c2ccc3c(ccc(=O)n3C)c2)o1` [Compound 109], the IC50 is 2.98 nM in experiment [1]; over 15000 nM at Recombinant human HDAC8; 9.4 nM on Recombinant human HDAC2; 3.52 nM on Recombinant human HDAC1; 13400 nM against HDAC6.
The corresponding values for `CCC(=O)CCCCC[C@H](NC(=O)[C@H]1CC12CCN(C)CC2)c1ncc(-c2ccc3cnc(OC)cc3c2)[nH]1` [Compound 113] are 1.42 nM, 2180 nM, 6.6 nM, 1.37 nM and over 4500 nM.
The like results for `CCC(=O)CCCCC[C@H](NC(=O)[C@H]1CC12CCN(CC)CC2)c1ncc(-c2ccc3nc(C4CC4)ccc3c2)o1` [Compound 114] were, in that order, 1.04 nM, 27000 nM, 4.7 nM, 1.12 nM and 4090 nM.
The corresponding values for `CCC(=O)CCCCC[C@H](NC(=O)[C@H]1CC12CCN(CC1CC1)CC2)c1ncc(-c2ccc3nc(C4CC4)ccc3c2)o1` [Compound 115] are under 1.5 nM, 15400 nM, 2 nM, under 1.5 nM and 4290 nM.
In the case of `CCC(=O)CCCCC[C@H](NC(=O)[C@H]1CC12CCN(C(C)C)CC2)c1ncc(-c2ccc3nc(C4CC4)ccc3c2)o1` [Compound 116], the IC50 in experiment [1] is 3.88 nM; at Recombinant human HDAC8 it was over 15000 nM; at Recombinant human HDAC2, 15.7 nM; at Recombinant human HDAC1 it was 4.37 nM; at HDAC6 it was 4730 nM.
The corresponding values for `CCC(=O)CCCCC[C@H](NC(=O)[C@H]1CC12CCN(C)CC2)c1ncc(-c2ccc3nc(C4CC4)ccc3c2)o1` [Compound 121] are 1.16 nM, 15300 nM, 4.4 nM, 1.39 nM and 4810 nM.
Consider `CCC(=O)CCCCC[C@H](NC(=O)[C@H]1CC[C@]2(CC1)OC(=O)c1ncccc12)c1ncc(-c2ccc3nc(C4CC4)ccc3c2)o1` [Compound 122], for which the IC50 was 20.5 nM in experiment [1]; 29300 nM at Recombinant human HDAC8; 157 nM on Recombinant human HDAC2; 56.7 nM on Recombinant human HDAC1; over 45000 nM on HDAC6.
